# Results published in patent US20230117324A1, “OXAZINE MONOACYLGLYCEROL LIPASE (MAGL) INHIBITORS” (Hoffmann-La Roche Inc., priority 2018, published 2023).
# Biological target: T1, MAGL (Homo sapiens, UniProt Q99685)
# T1 sequence (Q99685 1-303): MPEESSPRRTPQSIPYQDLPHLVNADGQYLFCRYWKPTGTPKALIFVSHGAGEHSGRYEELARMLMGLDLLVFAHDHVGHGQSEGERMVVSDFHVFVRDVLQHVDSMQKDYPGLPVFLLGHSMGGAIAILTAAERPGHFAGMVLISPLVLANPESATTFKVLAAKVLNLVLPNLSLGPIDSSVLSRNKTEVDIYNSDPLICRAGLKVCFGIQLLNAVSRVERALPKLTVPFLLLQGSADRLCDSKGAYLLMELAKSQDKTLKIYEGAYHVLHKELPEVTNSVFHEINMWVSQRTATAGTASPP
# Assay: MAGL inhibition, 2-AG assay (hydrolysis of 2-arachidonoylglycerol, arachidonic acid by mass spectrometry)
# Format: biochemical
# Conditions: 2-AG assay (footnote [b])
# Method: Alternatively, compounds were profiled for MAGL inhibitory activity by determining the enzymatic activity by following the hydrolysis of the natural substrate 2-arachidonoylglycerol (2-AG) resulting in arachidonic acid, which can be followed by mass spectrometry. This assay is hereinafter abbreviated “2-AG assay”.
# The 2-AG assay was carried out in 384 well assay plates (PP, Greiner Cat #784201) in a total volume of 20 μL. Compound dilutions were made in 100% DMSO (VWR Chemicals 23500.297) in a polypropylene plate in 3-fold dilution steps to give a final concentration range in the assay from 12.5 μM to […]. 0.25 μL compound dilutions (100% DMSO) were added to 9 μL MAGL in assay buffer (50 mM TRIS (GIBCO, 15567-027), 1 mM EDTA (Fluka, 03690-100 mL), 0.01% (v/v) Tween. After shaking, the plate was incubated for 15 min at RT. To start the reaction, 10 μL 2-arachidonoylglycerol in assay buffer was added. The final concentrations in the assay was […] and 8 μM 2-arachidonoylglyerol. After shaking and 30 min incubation at RT, the reaction was quenched by the addition of 40 μL of ACN containing 4 μM of d8-arachidonic acid. The amount of arachidonic acid was traced by an online SPE system (Agilent Rapidfire) coupled to a triple quadrupole mass spectrometer (Agilent 6460). A C18 SPE cartridge (G9205A) was used in an ACN/water liquid setup. The mass spectrometer was operated in negative electrospray mode following the mass transitions 303.1→259.1 for arachidonic acid and 311.1→267.0 for d8-arachidonic acid. The activity of the compounds was calculated based on the ratio of intensities [arachidonic acid/d8-arachidonic acid].
row,Compound,IC50 [nM]
1,"CC(Oc1ccc(C(F)(F)F)cc1Cl)C1CN(C(=O)N2CC[C@@H]3OCC(=O)N[C@@H]3C2)C1 (single isomer, unassigned) [Example 75, (4aR,8aS)-6-(3-(R or S)-(1-(2-chloro-4-(trifluoromethyl)phenoxy)ethyl)azetidine-1-carbonyl)hexahydro-2H-pyrido[4,3-b][1,4]oxazin-3(4H)-one]",28
2,"CC(Oc1ccc(C(F)(F)F)cc1F)C1CN(C(=O)N2CC[C@@H]3OCC(=O)N[C@@H]3C2)C1 (single isomer, unassigned) [Example 96, (4aR,8aS)-6-(3-((R or S)-1-(2-Fluoro-4-(trifluoromethyl)phenoxy)ethyl)azetidine-1-carbonyl)hexahydro-2H-pyrido[4,3-b][1,4]oxazin-3(4H)-one]",44
3,"CC(Oc1ccc(C(F)(F)F)cc1F)C1CN(C(=O)N2CC[C@@H]3OCC(=O)N[C@@H]3C2)C1 (single isomer, unassigned) [Example 97, (4aR,8aS)-6-(3-((S or R)-1-(2-Fluoro-4-(trifluoromethyl)phenoxy)ethyl)azetidine-1-carbonyl)hexahydro-2H-pyrido[4,3-b][1,4]oxazin-3(4H)-one]",16
4,"CC(Oc1ccc(C(F)(F)F)cc1)C1CN(C(=O)N2CC[C@@H]3OCC(=O)N[C@@H]3C2)C1 (single isomer, unassigned) [Example 98, (4aR,8aS)-6-(3-((R or S)-1-(4-(Trifluoromethyl)phenoxy)ethyl)azetidine-1-carbonyl)hexahydro-2H-pyrido[4,3-b][1,4]oxazin-3(4H)-one]",62
5,"CC(Oc1ccc(C(F)(F)F)cc1)C1CN(C(=O)N2CC[C@@H]3OCC(=O)N[C@@H]3C2)C1 (single isomer, unassigned) [Example 99, (4aR,8aS)-6-(3-((S or R)-1-(4-(Trifluoromethyl)phenoxy)ethyl)azetidine-1-carbonyl)hexahydro-2H-pyrido[4,3-b][1,4]oxazin-3(4H)-one]",27
6,"CC(c1ccc(C(F)(F)F)cc1)C1CN(C(=O)N2CC[C@@H]3OCC(=O)N[C@@H]3C2)C1 (single isomer, unassigned) [Example 103, (4aR,8aS)-6-(3-((S or R)-1-(4-(Trifluoromethyl)phenyl)ethyl)azetidine-1-carbonyl)hexahydro-2H-pyrido[4,3-b][1,4]oxazin-3(4H)-one]",99
7,"CC(c1ccc(C(F)(F)F)cc1)C1CN(C(=O)N2CC[C@@H]3OCC(=O)N[C@@H]3C2)C1 (single isomer, unassigned) [Example 104, (4aR,8aS)-6-(3-((R or S)-1-(4-(Trifluoromethyl)phenyl)ethyl)azetidine-1-carbonyl)hexahydro-2H-pyrido[4,3-b][1,4]oxazin-3(4H)-one]",111
8,"O=C1CO[C@H]2CCN(C(=O)N3CC(C(OCC(F)(F)F)c4ccc(F)cc4)C3)C[C@H]2N1 (single isomer, unassigned) [Example 105, (4aR,8aS)-6-[3-(S or R)-[(4-Fluorophenyl)-(2,2,2-trifluoroethoxy)methyl]azetidine-1-carbonyl]-4,4a,5,7,8,8a-hexahydropyrido[4,3-b][1,4]oxazin-3-one]",434

# More lines, in order of falling IC50, values ahead:
row,IC50 [nM],Compound
1,16,"O=C1CO[C@H]2CCN(C(=O)N3CCC(C(c4ccc(F)cc4)c4nc(C5CC5)no4)CC3)C[C@H]2N1 (single isomer, unassigned) [Example 95, (4aR,8aS)-6-(4-((S or R)-(3-Cyclopropyl-1,2,4-oxadiazol-5-yl)(4-fluorophenyl)methyl)piperidine-1-carbonyl)hexahydro-2H-pyrido[4,3-b][1,4]oxazin-3(4H)-one]"
2,4,"O=C1CO[C@H]2CCN(C(=O)N3CCC(C(c4ccc(F)cc4)c4ccc(OCCF)cc4)CC3)C[C@H]2N1 (single isomer, unassigned) [Example 100, (4aR,8aS)-6-(4-((R or S)-(4-(2-Fluoroethoxy)phenyl)(4-fluorophenyl)methyl)piperidine-1-carbonyl)hexahydro-2H-pyrido[4,3-b][1,4]oxazin-3(4H)-one]"
3,2.2,"COc1ccc(C(c2ccc(F)cc2)C2CCN(C(=O)N3CC[C@@H]4OCC(=O)N[C@@H]4C3)CC2)cc1OC (single isomer, unassigned) [Example 88, (4aR,8aS)-6-(4-((R or S)-(3,4-Dimethoxyphenyl)(4-fluorophenyl)methyl)piperidine-1-carbonyl)hexahydro-2H-pyrido[4,3-b][1,4]oxazin-3(4H)-one]"
4,2,"COc1ccc(C(c2ccccc2)C2CCN(C(=O)N3CC[C@@H]4OCC(=O)N[C@@H]4C3)CC2)cc1OC (single isomer, unassigned) [Example 74, (4aR,8aS)-6-(4-((R or S)-(3,4-Dimethoxyphenyl)(phenyl)methyl)piperidine-1-carbonyl)hexahydro-2H-pyrido[4,3-b][1,4]oxazin-3(4H)-one]"
5,2,"O=C1CO[C@H]2CCN(C(=O)N3CCC(C(c4ccc(F)cc4)c4nc(C5CC5)no4)CC3)C[C@H]2N1 (single isomer, unassigned) [Example 94, (4aR,8aS)-6-(4-((R or S)-(3-Cyclopropyl-1,2,4-oxadiazol-5-yl)(4-fluorophenyl)methyl)piperidine-1-carbonyl)hexahydro-2H-pyrido[4,3-b][1,4]oxazin-3(4H)-one]"
6,1,"CC(Oc1ccc(C(F)(F)F)cc1Cl)C1CN(C(=O)N2CC[C@@H]3OCC(=O)N[C@@H]3C2)C1 (single isomer, unassigned) [Example 76, (4aR,8aS)-6-(3-(S or R)-(1-(2-Chloro-4-(trifluoromethyl)phenoxy)ethyl)azetidine-1-carbonyl)hexahydro-2H-pyrido[4,3-b][1,4]oxazin-3(4H)-one]"
7,0.6,"COc1ccc(C(c2ccc(F)cc2)C2CCN(C(=O)N3CC[C@@H]4OCC(=O)N[C@@H]4C3)CC2)cc1 (single isomer, unassigned) [Example 89, (4aR,8aS)-6-(4-((R or S)-(4-Fluorophenyl)(4-methoxyphenyl)methyl)piperidine-1-carbonyl)hexahydro-2H-pyrido[4,3-b][1,4]oxazin-3(4H)-one]"
8,0.4,"COc1ccc(C(c2ccc(F)cc2)C2CCN(C(=O)N3CC[C@@H]4OCC(=O)N[C@@H]4C3)CC2)cc1OC (single isomer, unassigned) [Example 73, (4aR,8aS)-6-(4-((S or R)-(3,4-Dimethoxyphenyl)(4-fluorophenyl)methyl)piperidine-1-carbonyl)hexahydro-2H-pyrido[4,3-b][1,4]oxazin-3(4H)-one]"
9,0.4,"COc1ccc(C(c2ccccc2)C2CCN(C(=O)N3CC[C@@H]4OCC(=O)N[C@@H]4C3)CC2)cc1OC (single isomer, unassigned) [Example 87, (4aR,8aS)-6-(4-((S or R)-(3,4-Dimethoxyphenyl)(phenyl)methyl)piperidine-1-carbonyl)hexahydro-2H-pyrido[4,3-b][1,4]oxazin-3(4H)-one]"
10,0.2,"O=C1CO[C@H]2CCN(C(=O)N3CCC(C(c4ccccc4)c4ccc(OCCF)cc4)CC3)C[C@H]2N1 (single isomer, unassigned) [Example 79, (4aR,8aS)-6-[4-[(S or R)-[4-(2-Fluoroethoxy)phenyl]-phenylmethyl]piperidine-1-carbonyl]-4,4a,5,7,8,8a-hexahydropyrido[4,3-b][1,4]oxazin-3-one]"
11,0.1,"Cc1ccc(C(c2ccc(F)cc2)C2CCN(C(=O)N3CC[C@@H]4OCC(=O)N[C@@H]4C3)CC2)cc1 (single isomer, unassigned) [Example 72, (4aR,8aS)-6-(4-((R or S)-(4-Fluorophenyl)(p-tolyl)methyl)piperidine-1-carbonyl)hexahydro-2H-pyrido[4,3-b][1,4]oxazin-3(4H)-one]"
12,0.1,"Cc1ccc(C(c2ccccc2)C2CCN(C(=O)N3CC[C@@H]4OCC(=O)N[C@@H]4C3)CC2)cc1 (single isomer, unassigned) [Example 84, (4aR,8aS)-6-[4-[(S or R)-Phenyl(p-tolyl)methyl]piperidine-1-carbonyl]-4,4a,5,7,8,8a-hexahydropyrido[4,3-b][1,4]oxazin-3-one]"
13,0.1,"Cc1ccc(C(c2ccccc2)C2CCN(C(=O)N3CC[C@@H]4OCC(=O)N[C@@H]4C3)CC2)cc1 (single isomer, unassigned) [Example 85, (4aR,8aS)-6-(4-((R or S)-Phenyl(p-tolyl)methyl)piperidine-1-carbonyl)hexahydro-2H-pyrido[4,3-b][1,4]oxazin-3(4H)-one]"
